Measured values published in US9446007B2, “Methods for maintaining or improving health, well-being and/or a physiological function in a subject” (DYNAMIS THERAPEUTICS, INC., priority 2012, dated 2016).

Columns and labels:
3-Deoxyglucosone (3DG) = test: Mice study: urine 3-deoxyglucosone (3DG) levels, GC-MS; type: in vivo, C57BL/6 male mice; conditions: 10, 40 or 75 mM in drinking water; age 103 weeks; vs control animals
Description: (§1) A group of sixteen C57BL/6 male mice at 12 weeks of age were distributed into 4 groups (n=4 each). Animals were fed a normal diet supplemented with 0 mM, 10 mM, 40 mM, or 75 mM meglumine in the drinking water. The approximate doses of meglumine were 537 mg/kg/day, 2,146 mg/kg/day, and 4,027 mg/kg/day for animals treated with, respectfully, 10 mM, 40 mM and 75 mM meglumine.
Urine was collected from animals (n=3 for all groups, except n=4 for 75 mM meglumine) at the age of 103 weeks and 3DG levels were measured using GC-MS with an internal U-[^13C]-3DG standard (FIG. 2). Prior to analysis, urine samples were treated with 2,3-diaminonapthalene overnight to derivatize 3DG, and then extracted with ethyl acetate. Urinary creatinine levels were measured with a reagent kit from Oxford Biochemicals. The 3DG/creatinine ratio (±standard deviation) is illustrated in FIG. 2.

blood glucose = test: Glucose tolerance test; type: in vivo, KK.Cg-A^y/+/J yellow mice; conditions: mutant yellow mice; 18 mM meglumine hydrochloride in water for 16 weeks; 15, 30, 60 and 120 min; vs water
Description: Mutant KK.Cg-A^y/+/J “yellow mice” (which are prone to developing diabetes and obesity) and control KK.Cg-A^+/+/J “black mice” were fed with water or water supplemented with 18 mM meglumine hydrochloride for 16 weeks. As a comparison group, SV129 normoglycemic mice were fed with water. The animals were then fasted overnight and blood glucose measured (time 0 min). The animals were injected with glucose, and blood glucose levels measured after 15 min, 30 min, 60 min and 120 min. The results are illustrated in FIG. 8.

imidazolone [1] = test: Rat study: 3DG adduct (imidazolone) levels in kidney tubules and glomeruli; type: in vivo, Sprague-Dawley rat; conditions: 50 mM, 32 weeks
Description: Eighteen male Sprague-Dawley rat (ACE) weighing 150-175 g were divided into 3 groups (n=6) and fed a normal diet supplemented with 0 mM, 25 mM, or 75 mM meglumine in the drinking water for 32 weeks. The 3DG adduct imidazolone was measured in kidney tubules and glomeruli by fluorescent immunohistochemistry using a monoclonal antibody to imidazolone, AG-1 (T. Niwa). Kidneys from each rat on water or 50 mM meglumine were placed in formalin, and thin sections were prepared. Each slide was treated with AG-1 and then a fluorescent second antibody, and then scanned using a fluorescence microscope. The total florescence due to imidazolone over each structure measured.

[2] = test system: advanced glycation end products (AGE products); test: Rat study: advanced glycation end product in skin (fluorescence ratio); type: in vivo, Sprague-Dawley rat; conditions: 32 weeks; for Mean AGE/Total Protein in skin: water 0.594 ± 0.173; for decrease of AGE product in the skin vs untreated rats: not statistically significant
Description: At the end of 32 weeks the ratio of advanced glycation end products (AGE products) to total protein was determined in the skin using the ratio of fluorescence measurements. A 3 cm^2 biopsy was taken from the shaved dorsal surface of the rats. The dermis was separated from the epidermis via immersion in water at 55° C. for 30 seconds, followed by gentle scraping of epidermis. The dermis was placed onto a wire screen cut to fit diagonally into fluorescence spectrometer. Fluorescence was recorded on PE 650-40 fluorescence spectrometer using front surface (“diagonal”) geometry. Fluorescence intensities were monitored at excitation/emission wavelengths of 270/300 nm, 270/330 nm, 270/360 nm, 270/400 nm, 325/400 nm, 270/450 nm and 370/450 nm. For direct comparison at the same excitation wavelength, ratios of I(270/330 nm) to I(270/450 nm) were recorded. These ratios were corrected for different instrumental responses at 330 and 450 nm.

3DG = test: Rat study: urinary 3DG levels, GC-MS; type: in vivo, Sprague-Dawley rat; conditions: 50 mM, 32 weeks
Description: The level of 3DG was measured in the urine of the rats at 32 weeks. 3DG levels were measured by GC-MS by reacting 0.1 ml of sample, to which 20 picomoles of [U-^13C] labeled 3DG had been added as an internal standard, with 1 ml of 1 mM 2,3-diaminonaphthalene (DAN) for 24 hours at room temperature. Following reaction with DAN, the sample was extracted with four volumes of ethyl acetate and then dried. The residue was dissolved in 50 μl of N-methyl-N-(trimethylsilyl)trifluoroacetamide and heated at 65° C. for 30 min. 2 μl was analyzed by GC-MS. Levels of 3DG were normalized to creatinine levels measured with reagents from Oxford Biochemicals.

C57BL/6 male mice = test: Mice study: longevity; type: in vivo; conditions: for average lifespan (±standard deviation): control 771±214.6
Description: as §1
Animals were observed daily, and date of death was noted if applicable. Four animals were found dead in their cages, and twelve were euthanized after showing symptoms of distress (hunched posture, weight loss, decreased food intake).
The average lifespan (±standard deviation) for the mice treated with 0 mM, 10 mM, 40 mM and 75 mM meglumine was 771±214.6 days, 834±124 days, 927±80.3 days and 1,027±117.5 days. Animals treated with 10 mM, 40 mM and 75 mM lived, respectively, 8.2%, 20.2%, and 33.2% longer than the control animals.

isoprostane = test: Rat study: urinary isoprostane levels, competitive ELISA; type: in vivo, Sprague-Dawley rat; conditions: 50 mM, 32 weeks
Description: […] Rat urine from 32 weeks was measured for the presence of isoprostane, a marker for oxidative stress using a competitive ELISA (Oxford Biochemicals, Oxford Mich.). All values were normalized to creatinine levels to control for differences in urine volume. Creatinine was measured using a kit from Oxford Biochemicals.

imidazolone [3] = test: Rat study: 3DG adduct (imidazolone) levels in skin, fluorescent immunohistochemistry; type: in vivo, Sprague-Dawley rat; conditions: 50 mM, 32 weeks
Description: Eighteen male Sprague-Dawley rat (ACE) weighing 150-175 g were divided into 3 groups (n=6) and fed a normal diet supplemented with 0 mM, 25 mM, or 75 mM meglumine in the drinking water for 32 weeks. The presence of imidazolone, a 3DG-derived adduct formed from the reaction of 3DG and arginine was measured by fluorescent immunohistochemistry, using a monoclonal antibody to imidazolone, AG-1 (T. Niwa). A piece of skin from each rat on water and 50 mM meglumine was fixed in formalin, and thin sections were treated with AG-1 antibody and then a fluorescent second antibody, and each slide was scanned using a fluorescence microscope. The total florescence due to imidazolone over each slide was measured.

SV129 mice = test: Strength testing in mice (inverted metal grid); type: in vivo; conditions: 18 mM meglumine hydrochloride in drinking water, 6 weeks; n=15; control 6.3±3.4; p=0.0006
From the text: The grip strength test is a widely-used non-invasive method designed to evaluate mouse limb strength that has been used to investigate the effects of neuromuscular disorders and compound under testing. It is based on the natural tendency of the mouse to grasp a bar or grid when it is suspended by the tail. During this test the mouse grips with both forelimbs (or hind-limbs) a single bar or a mesh. There are three kinds of grip strength tests used: Mesh Grip Test, Wire Grip Test, and Automatic Grip Strength (GS Meter). The Mesh Grip Test measures the ability of the mouse to remain clinging to an inverted or tilted surface such as a wire grid or a cage lid for a period of time, usually up to 1 minute; the Wire Grip Test measures the ability of the mouse to hang on a wire with its forepaws for a preset length of time or until grip fails, while in the Automatic Grip Strength the mouse grasps a horizontal metal bar or grid while is pulled by the tail. The bar or grid is attached to a force transducer that peak pull-force achieved on its digital display. A group of SV129 mice (n=15) and a group of mice treated with 18 mM meglumine hydrochloride in their drinking water (n=15) for 6 weeks were tested for the ability to hold on to an inverted metal grid. The length of time before falling off the grid was averaged, and the standard error was calculated.

CNC[C@H](O)[C@@H](O)[C@H](O)[C@H](O)CO [meglumine, (2R,3R,4R,5S)-6-methylaminohexane-1,2,3,4,5-pentol]
urine 3DG/creatinine ratio (3-Deoxyglucosone (3DG)): less than the control animals | blood glucose levels after glucose injection (blood glucose): decreased blood glucose levels | less imidazolone in glomeruli than rats on water (imidazolone [1]; not statistically significant): 24% | less imidazolone in tubules than rats on water (imidazolone [1]; not statistically significant): 13% | Fluorescence in Tubules (imidazolone) (imidazolone [1]; water 47,081,228 ± 6,407,142): 40,158,431 ± 3,644,819 | Fluorescence in Glomeruli (imidazolone) (imidazolone [1]; water 85,039,251 ± 13,401,970): 64,376,501 ± 7,548,981 | Mean AGE/Total Protein in skin ([2]; 25 mM in drinking water): 0.486 ± 0.187 | decrease of AGE product in the skin vs untreated rats ([2]; 25 mM): 10% | Mean AGE/Total Protein in skin ([2]; 50 mM in drinking water): 0.235 ± 0.067 | decrease of AGE product in the skin vs untreated rats ([2]; 50 mM): 60% | urinary 3DG levels lower than in rats on water (3DG): 33% | urinary 3DG (3DG; water 0.0891 ± 0.007): 0.0598 ± 0.004 µM | lived longer than the control animals (C57BL/6 male mice; 10 mM in drinking water): 8.2% | average lifespan (±standard deviation) (C57BL/6 male mice; 10 mM in drinking water (537 mg/kg/day)): 834 ± 124 days | lived longer than the control animals (C57BL/6 male mice; 40 mM in drinking water): 20.2% | average lifespan (±standard deviation) (C57BL/6 male mice; 40 mM in drinking water (2,146 mg/kg/day)): 927 ± 80.3 days | lived longer than the control animals (C57BL/6 male mice; 75 mM in drinking water): 33.2% | average lifespan (±standard deviation) (C57BL/6 male mice; 75 mM in drinking water (4,027 mg/kg/day)): 1,027±117.5 days | urinary isoprostane levels lower than in rats on water (isoprostane; not statistically significant): 22% | urinary Isoprostane (isoprostane; water 2.65 ± 0.236): 2.05 ± 0.283 ng/mL | less imidazolone in skin than rats on water (imidazolone [3]; not statistically significant): 25% | Fluorescence (imidazolone) in skin (imidazolone [3]; water 790567 ± 83833): 593320 ± 87404 | length of time that the animals could hold on to the grid (SV129 mice): 17.8 ± 0.6 s
